Measurements published in the CombiSolv-Exp solvation set (Vermeire and Green 2021).

Assay: solvent given as SMILES

CN(C)C(=O)Nc1ccc(Cl)cc1
Conditions	solvation free energy, 298 K [kcal/mol]
in C1CCOC1	-13.7
in CC(C)CC(C)(C)C	-9.58
in CC(C)CCO	-13.1
in CC(C)CO	-13.1
in CC(C)O	-13.1
in CCC(C)O	-13.1
in CCCC(C)O	-13
in CCCCC(CC)CO	-12.8
in CCCCCC	-9.81
in CCCCCCC	-9.75
in CCCCCCCC	-9.79
in CCCCCCCCCC	-9.8
in CCCCCCCCCCO	-12.8
in CCCCCCCO	-13
in CCCCCCO	-13.2
in CCCCCO	-13.2
in CCCCO	-13.3
in CCCCOC(C)=O	-12.8
in CCCCOCCCC	-11.6
in CCCO	-13.3
in CCO	-13.4
in CCOC(C)=O	-13.1
in CO	-13.7
in COC(C)=O	-13.1
in ClC(Cl)(Cl)Cl	-11.1
in ClC(Cl)Cl	-13.3
in ClCCCl	-13
in ClCCl	-13.3
in O	-10.4

O=c1[nH]cc(Br)c(=O)[nH]1
Conditions	solvation free energy, 298 K [kcal/mol]
in O	-18.2

ClC(Br)Br
Conditions	solvation free energy, 298 K [kcal/mol]
in CCCCCCCCO	-4.9

CCC(O)C(C)C (stereo not drawn)
Conditions	solvation free energy, 298 K [kcal/mol]
in CC(C)CC(C)(C)C	-4.53
in CCCCCCCC	-4.72
in CCCCCCCCCC	-4.67
in O	-3.88

CC(=O)Nc1ccc(O)cc1
Conditions	solvation free energy, 298 K [kcal/mol]
in C1CCOC1	-16.1
in C1COCCO1	-14.9
in CC(C)(C)O	-15.8
in CC(C)CO	-15.6
in CC(C)O	-16
in CC(C)OCCO	-16.1
in CC(O)COC(C)(C)C	-15.5
in CCC(C)O	-15.8
in CCCCCCCO	-15.3
in CCCCCCO	-15.5
in CCCCCO	-15.6
in CCCCO	-15.8
in CCCCOC(C)=O	-14.2
in CCCCOCCCC	-12
in CCCCOCCO	-15.8
in CCCO	-16.1
in CCCOCCO	-16.1
in CCOCCO	-16.4
in CN(C)C=O	-17.3
in CO	-16.6
in COC(C)(C)C	-13.4
in COC(C)=O	-14.8
in COC(C)CCO	-16
in ClCCl	-12.8
in Fc1ccccc1	-12.1
in O	-14.9

CC[N+](=O)[O-]
Conditions	solvation free energy, 298 K [kcal/mol]
in C=CCCCCCCCCCCCCCC	-3.33
in CCC(C)=O	-5.25
in CCCC(C)C	-4.09
in CCCCCCC	-3.34
in CCCCCCCC	-3.37
in CCCCCCCCCCCCCCCC	-3.17
in CCCCCCCCO	-3.93
in COC(C)=O	-5.46
in O	-3.72
in [2H]O[2H]	-3.75

CC1=CCC2(C(C)C)CC12 (stereo not drawn)
Conditions	solvation free energy, 298 K [kcal/mol]
in O	0.5

O=C(O)CCCCC(=O)O
Conditions	solvation free energy, 298 K [kcal/mol]
in CC(C)(C)O	-13.7
in CC(C)=O	-13.1
in CC(C)O	-13.5
in CCCCO	-13.2
in CCCO	-13.7
in CCO	-13.7
in CO	-14
in O	-12.9
in O=C1CCCCC1	-12.9

OC(CCl)CCl
Conditions	solvation free energy, 298 K [kcal/mol]
in CCCCOC(C)=O	-7.58
in Clc1ccccc1	-6.02

COc1ccc(C(=O)N(O)c2cccc(Cl)c2)cc1
Conditions	solvation free energy, 298 K [kcal/mol]
in O	-12.8

Clc1ccc(-c2cc(Cl)c(Cl)cc2Cl)cc1Cl
Conditions	solvation free energy, 298 K [kcal/mol]
in O	-3.36

Nc1ccc(-c2ccc(N)cc2)cc1
Conditions	solvation free energy, 298 K [kcal/mol]
in Cc1ccccc1C	-15.7

CN1C(C(=O)Nc2ccccn2)=C(O)c2ccccc2S1(=O)=O
Conditions	solvation free energy, 298 K [kcal/mol]
in CN(C)C=O	-21
in NC=O	-19.3
in O	-15.8

CCCCCO
Conditions	solvation free energy, 298 K [kcal/mol]
in Brc1ccccc1	-5.42
in C1CCOC1	-6.61
in CC#N	-5.85
in CC(C)(C)O	-6.96
in CC(C)CC(C)(C)C	-4.37
in CC(C)CO	-6.85
in CC(C)O	-6.83
in CCCCCC	-4.62
in CCCCCCC	-4.48
in CCCCCCCC	-4.27
in CCCCCCCCCC	-4.16
in CCCCCCCCCCCCCCCC	-4.08
in CCCCCCCCCCO	-6.39
in CCCCCCCCO	-6.37
in CCCCCCO	-6.68
in CCCCO	-6.77
in CCCO	-6.78
in CO	-6.84
in Cc1cccc(C)c1	-5.21
in Cc1ccccc1C	-5.21
in Clc1ccccc1	-5.48
in NC=O	-5.65
in O	-4.56
in [2H]O[2H]	-4.61

COCC(OC)(OC)OC
Conditions	solvation free energy, 298 K [kcal/mol]
in O	-5.73

COC(=O)c1cc(OC)c(O)c(-c2cc(C(=O)OC)cc(OC)c2O)c1
Conditions	solvation free energy, 298 K [kcal/mol]
in CCC(C)=O	-20.8
in CCCO	-20.8
in ClC=CCl	-21.7
in O	-17.3
